Assays:
TE-8 cells = assay: Cell growth inhibitory activity, TE-8 cells (Test Example 3); type: cell-based; conditions: Homo sapiens, 72 h, cultured for 3 days, CellTiter-Glo
Description: (§1) [Test Example 3] Evaluation of Cell Growth Inhibitory Activity
(§2) As a culture medium for each cell, a 10% FBS supplemented RPMI 1640 medium (for LK2 cells and TE-8 cells derived from human esophageal cancer) was used. LK2 cells were purchased from Human Science Research Resources Bank, and TE-8 cells were purchased from Riken Cell Bank. The compound of each of Examples 1 to 108b was prepared by dilution with Freedom EVO 150 (Tecan Trading AG) (4-fold diluted, 10 stages, 10 mM to 38 nM). The resultant was added to respective wells of a 384-well plate in an amount of 40 nL/well using Echo 555 (Labcyte Inc.). The LK2 or TE-8 cells were seeded in the plate at 400 cells/40 μL/well (day 0), and were cultured for 3 days. On the day of addition of the compound (day 0) and 3 days after the addition of the compound (day 3), an ATP measurement reagent of CellTiter-Glo (registered trademark) 2.0 Assay (Promega Corporation, #G9242) was added to each well in an amount of 10 μL/well, and the amount of luminescence of each well was measured using EnVision. Based on the amount of luminescence (C0) on the day of the addition of the compound, and the amounts of luminescence of a compound non-addition group (C3) and a compound addition group (T3) obtained after the 3-day culture of the compound, a cell survival rate was calculated in accordance with the following expression: Cell survival rate (%)=(T3−C0)/(C3−C0)×100
(§3) A concentration (GI50 value) of each compound at which the growth of the TE-8 or LK-2 cells was inhibited by 50% was calculated by semilogarithmically plotting the cell survival rate at each concentration and the compound concentration.

EP300 = EP300 (Homo sapiens, UniProt Q09472); assay: Histone acetyltransferase inhibitory activity against EP300 (Test Example 1); type: biochemical; conditions: 50 ng/mL EP300, 2 μM Acetyl-CoA, 100 nM Histone H4(1-25)-GSGSK (Biotin), 28° C. for 1 hour
How it was run: (§4)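 Enzyme (50 ng/mL EP300 or 125 ng/mL CREBBP) incubated 1 h at 28° C with 2 μM acetyl-CoA, 100 nM biotinylated histone H4(1-25) peptide and 10 to 0.0006 μM compound in pH 8.0 Tris buffer with 330 nM trichostatin A, 1% DMSO. Reaction stopped with Lys-CoA; acetylation read by TR-FRET (Eu-anti pan-Ac/Sta-ULight) after overnight room-temperature incubation.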

H3K27Ac = assay: Intracellular H3K27Ac inhibitory activity in LK2 cells (Test Example 2); type: cell-based; conditions: Homo sapiens, LK-2, cultured with compound for 3 hours, read-out: Test Example 2 H3K27Ac Inhibition (LK2) IC50
How it was run: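 Human squamous lung cancer LK2 cells (40000/well) cultured overnight at 37 °C, 5% CO2 before treatment. After paraformaldehyde fixation, peroxide quench and blocking, H3K27 acetylation detected with anti-acetyl-H3K27 rabbit mAb (4 °C overnight) and HRP secondary; chemiluminescent read-out.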

LK2 cells = assay: Cell growth inhibitory activity, LK2 cells (Test Example 3); type: cell-based; conditions: Homo sapiens, LK-2, 72 h, cultured for 3 days, CellTiter-Glo
Description: as §1, §2, §3

CREBBP = CREBBP (Homo sapiens, UniProt Q92793); assay: Histone acetyltransferase inhibitory activity against CREBBP (Test Example 1); type: biochemical; conditions: 125 ng/mL CREBBP, 2 μM Acetyl-CoA, 100 nM Histone H4(1-25)-GSGSK (Biotin), 28° C. for 1 hour
How it was run: as §4

Chain of EP300 (Q09472 whole entry): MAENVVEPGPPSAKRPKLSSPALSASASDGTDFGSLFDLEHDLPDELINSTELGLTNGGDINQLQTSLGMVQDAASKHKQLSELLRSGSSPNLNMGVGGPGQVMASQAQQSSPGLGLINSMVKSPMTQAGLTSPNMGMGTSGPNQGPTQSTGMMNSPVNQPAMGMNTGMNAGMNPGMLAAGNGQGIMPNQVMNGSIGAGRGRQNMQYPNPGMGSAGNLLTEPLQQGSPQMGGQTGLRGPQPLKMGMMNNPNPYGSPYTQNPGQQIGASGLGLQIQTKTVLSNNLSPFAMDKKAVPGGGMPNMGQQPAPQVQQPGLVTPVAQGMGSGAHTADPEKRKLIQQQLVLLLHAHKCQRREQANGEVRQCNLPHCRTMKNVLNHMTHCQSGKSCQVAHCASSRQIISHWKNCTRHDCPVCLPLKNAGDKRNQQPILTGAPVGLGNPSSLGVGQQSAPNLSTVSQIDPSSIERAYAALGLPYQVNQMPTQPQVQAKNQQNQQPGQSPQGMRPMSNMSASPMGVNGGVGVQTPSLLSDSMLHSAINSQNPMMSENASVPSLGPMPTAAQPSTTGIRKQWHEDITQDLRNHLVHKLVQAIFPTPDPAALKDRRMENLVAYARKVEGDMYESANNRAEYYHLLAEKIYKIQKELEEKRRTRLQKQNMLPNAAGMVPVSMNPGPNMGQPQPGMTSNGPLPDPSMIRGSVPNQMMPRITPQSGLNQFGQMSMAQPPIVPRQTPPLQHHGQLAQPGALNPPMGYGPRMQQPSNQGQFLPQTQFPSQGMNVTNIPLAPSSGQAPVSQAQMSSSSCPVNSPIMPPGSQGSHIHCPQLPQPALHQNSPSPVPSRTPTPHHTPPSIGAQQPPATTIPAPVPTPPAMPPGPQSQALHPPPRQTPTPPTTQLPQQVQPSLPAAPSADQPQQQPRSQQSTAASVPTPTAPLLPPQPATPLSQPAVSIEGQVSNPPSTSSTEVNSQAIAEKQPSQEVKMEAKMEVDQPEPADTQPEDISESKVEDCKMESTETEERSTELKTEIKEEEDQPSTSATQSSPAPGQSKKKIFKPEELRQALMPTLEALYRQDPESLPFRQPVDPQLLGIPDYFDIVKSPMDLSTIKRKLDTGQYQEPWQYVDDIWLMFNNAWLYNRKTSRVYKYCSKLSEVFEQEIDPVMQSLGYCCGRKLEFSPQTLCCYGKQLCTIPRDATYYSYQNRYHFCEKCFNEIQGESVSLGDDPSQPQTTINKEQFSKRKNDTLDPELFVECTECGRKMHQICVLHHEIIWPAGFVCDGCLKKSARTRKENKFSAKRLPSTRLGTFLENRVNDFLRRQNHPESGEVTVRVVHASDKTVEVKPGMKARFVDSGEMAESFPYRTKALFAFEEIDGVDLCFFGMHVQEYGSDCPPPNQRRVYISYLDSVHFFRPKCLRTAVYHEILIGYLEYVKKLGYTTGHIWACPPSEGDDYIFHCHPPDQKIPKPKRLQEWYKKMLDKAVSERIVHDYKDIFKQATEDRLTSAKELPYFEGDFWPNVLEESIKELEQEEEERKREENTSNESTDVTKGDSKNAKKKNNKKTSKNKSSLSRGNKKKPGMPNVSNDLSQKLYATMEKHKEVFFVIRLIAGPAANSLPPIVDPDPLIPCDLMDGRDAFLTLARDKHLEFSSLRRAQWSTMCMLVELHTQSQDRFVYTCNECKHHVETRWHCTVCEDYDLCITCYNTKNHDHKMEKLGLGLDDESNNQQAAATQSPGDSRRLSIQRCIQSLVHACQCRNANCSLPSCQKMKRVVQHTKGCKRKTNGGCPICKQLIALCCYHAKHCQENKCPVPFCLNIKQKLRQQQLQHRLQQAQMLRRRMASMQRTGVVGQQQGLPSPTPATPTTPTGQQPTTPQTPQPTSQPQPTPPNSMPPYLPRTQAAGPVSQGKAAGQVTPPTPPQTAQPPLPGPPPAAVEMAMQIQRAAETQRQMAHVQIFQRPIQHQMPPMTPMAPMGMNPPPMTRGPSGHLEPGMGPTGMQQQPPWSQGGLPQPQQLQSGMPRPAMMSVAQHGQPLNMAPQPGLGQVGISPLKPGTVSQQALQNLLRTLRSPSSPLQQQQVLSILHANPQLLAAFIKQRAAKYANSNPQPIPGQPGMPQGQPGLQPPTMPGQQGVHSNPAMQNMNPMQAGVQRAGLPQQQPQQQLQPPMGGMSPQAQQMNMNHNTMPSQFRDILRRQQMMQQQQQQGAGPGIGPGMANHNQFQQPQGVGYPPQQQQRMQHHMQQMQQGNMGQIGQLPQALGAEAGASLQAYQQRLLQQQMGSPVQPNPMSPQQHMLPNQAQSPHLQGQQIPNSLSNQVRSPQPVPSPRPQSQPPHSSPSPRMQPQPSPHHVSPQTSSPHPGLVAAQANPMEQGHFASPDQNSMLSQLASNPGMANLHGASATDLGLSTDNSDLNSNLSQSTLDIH
Chain of CREBBP (Q92793 whole entry): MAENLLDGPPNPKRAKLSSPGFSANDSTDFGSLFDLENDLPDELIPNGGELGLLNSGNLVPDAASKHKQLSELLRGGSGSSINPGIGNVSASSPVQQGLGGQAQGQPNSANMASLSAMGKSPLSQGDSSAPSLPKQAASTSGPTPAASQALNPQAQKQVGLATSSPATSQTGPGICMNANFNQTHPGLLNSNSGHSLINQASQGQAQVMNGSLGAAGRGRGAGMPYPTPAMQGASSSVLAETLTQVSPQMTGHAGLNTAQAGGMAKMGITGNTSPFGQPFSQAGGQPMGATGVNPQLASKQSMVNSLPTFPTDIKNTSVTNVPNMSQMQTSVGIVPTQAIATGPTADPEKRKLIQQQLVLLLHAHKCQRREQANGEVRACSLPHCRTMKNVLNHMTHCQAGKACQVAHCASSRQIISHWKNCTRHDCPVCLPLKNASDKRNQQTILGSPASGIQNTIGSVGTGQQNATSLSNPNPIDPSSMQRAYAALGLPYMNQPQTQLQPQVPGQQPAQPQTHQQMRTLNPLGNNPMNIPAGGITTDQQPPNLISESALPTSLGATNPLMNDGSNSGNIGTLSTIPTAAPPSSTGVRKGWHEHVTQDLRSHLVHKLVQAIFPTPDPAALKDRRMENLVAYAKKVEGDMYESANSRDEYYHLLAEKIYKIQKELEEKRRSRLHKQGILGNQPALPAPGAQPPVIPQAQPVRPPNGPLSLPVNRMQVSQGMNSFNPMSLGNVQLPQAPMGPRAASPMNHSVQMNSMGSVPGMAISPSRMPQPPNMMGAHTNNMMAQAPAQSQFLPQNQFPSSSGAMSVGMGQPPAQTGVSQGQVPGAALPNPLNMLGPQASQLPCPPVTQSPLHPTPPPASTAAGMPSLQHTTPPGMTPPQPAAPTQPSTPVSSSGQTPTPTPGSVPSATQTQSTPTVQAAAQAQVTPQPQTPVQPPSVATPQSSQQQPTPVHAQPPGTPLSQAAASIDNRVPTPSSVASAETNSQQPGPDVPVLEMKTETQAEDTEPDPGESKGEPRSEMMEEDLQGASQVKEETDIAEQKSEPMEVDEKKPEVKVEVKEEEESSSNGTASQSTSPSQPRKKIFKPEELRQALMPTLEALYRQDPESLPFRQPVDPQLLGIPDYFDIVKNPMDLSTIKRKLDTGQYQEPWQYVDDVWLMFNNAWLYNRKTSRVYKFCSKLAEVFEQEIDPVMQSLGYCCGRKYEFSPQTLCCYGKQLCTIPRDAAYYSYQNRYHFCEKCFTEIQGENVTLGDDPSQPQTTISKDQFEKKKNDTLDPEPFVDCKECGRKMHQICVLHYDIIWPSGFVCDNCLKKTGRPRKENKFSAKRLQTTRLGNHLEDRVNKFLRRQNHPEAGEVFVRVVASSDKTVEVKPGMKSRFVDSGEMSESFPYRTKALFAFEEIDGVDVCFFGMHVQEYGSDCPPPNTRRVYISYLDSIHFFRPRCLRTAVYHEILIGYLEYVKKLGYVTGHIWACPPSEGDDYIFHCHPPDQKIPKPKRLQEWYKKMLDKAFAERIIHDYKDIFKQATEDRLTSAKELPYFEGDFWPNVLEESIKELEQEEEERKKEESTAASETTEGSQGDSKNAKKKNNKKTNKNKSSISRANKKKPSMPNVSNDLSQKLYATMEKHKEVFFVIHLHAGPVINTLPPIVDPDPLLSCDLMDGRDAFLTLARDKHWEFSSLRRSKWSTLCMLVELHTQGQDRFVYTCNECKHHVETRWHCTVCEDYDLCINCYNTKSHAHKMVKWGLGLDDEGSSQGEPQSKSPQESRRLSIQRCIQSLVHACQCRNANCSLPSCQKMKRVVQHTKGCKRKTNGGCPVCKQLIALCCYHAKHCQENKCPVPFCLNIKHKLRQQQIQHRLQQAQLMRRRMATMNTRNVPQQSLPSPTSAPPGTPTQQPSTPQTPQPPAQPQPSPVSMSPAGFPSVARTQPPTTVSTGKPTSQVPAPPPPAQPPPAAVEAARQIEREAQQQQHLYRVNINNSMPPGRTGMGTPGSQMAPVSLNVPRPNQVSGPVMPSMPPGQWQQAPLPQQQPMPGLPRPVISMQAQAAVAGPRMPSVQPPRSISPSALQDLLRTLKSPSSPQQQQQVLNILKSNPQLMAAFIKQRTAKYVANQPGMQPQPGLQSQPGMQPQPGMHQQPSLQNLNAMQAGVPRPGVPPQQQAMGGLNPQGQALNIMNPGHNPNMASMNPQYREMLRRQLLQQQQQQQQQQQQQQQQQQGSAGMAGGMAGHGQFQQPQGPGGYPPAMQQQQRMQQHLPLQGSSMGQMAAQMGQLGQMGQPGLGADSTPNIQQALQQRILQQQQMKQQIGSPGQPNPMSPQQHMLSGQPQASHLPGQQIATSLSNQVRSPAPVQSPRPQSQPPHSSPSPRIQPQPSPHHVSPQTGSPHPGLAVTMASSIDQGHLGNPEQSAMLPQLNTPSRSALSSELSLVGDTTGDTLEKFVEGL

Row | Structure (SMILES) | IC50 (EP300) | IC50 (H3K27Ac) | IC50 (CREBBP) | GI50 (TE-8 cells) | GI50 (LK2 cells)
1 | O=C(Nc1ccc2[nH]ncc2n1)[C@H]1C[C@@H](F)CN1C(=O)C1(c2ccc(OCC(F)(F)F)c(F)c2)CC(F)(F)C1 [Example 87] | 0.038 µM | 0.073 µM | 0.082 µM | 0.3 µM | 0.237 µM
2 | O=C(Nc1ccc2[nH]ncc2n1)[C@H]1C[C@@H](F)CN1C(=O)C1(c2ccc(OC(F)F)c(F)c2)CCC(F)(F)CC1 [Example 89] | 0.038 µM | 0.062 µM | 0.061 µM | 0.491 µM | 0.279 µM
3 | COc1cccc(C2(C(=O)N3C[C@H](F)C[C@@H]3C(=O)Nc3ccc4[nH]ncc4n3)CCC(F)(F)CC2)c1 [Example 93, (4R)-1-{[4,4-Difluoro-1-(3-methoxyphenyl)cyclohexyl]carbonyl}-4-fluoro-N-1H-pyrazolo[4,3-b]pyridin-5-yl-D-prolinamide] | 0.056 µM | 0.311 µM | 0.076 µM | 1.05 µM | 0.746 µM
4 | O=C(Nc1ccc2[nH]ncc2n1)[C@H]1C[C@@H](F)CN1C(=O)C1(c2ccc(-c3ccccc3)c(F)c2)CCC(F)(F)CC1 [Example 94] | 0.109 µM | 0.123 µM | 0.305 µM | 0.586 µM | 0.625 µM
5 | COCO[C@@H]1CN(C(=O)C2(c3ccc(OC)cc3)CCC(F)(F)CC2)[C@H]1C(=O)Nc1ccc2[nH]ncc2n1 [Example 96, (2R,3R)-1-{[4,4-Difluoro-1-(4-methoxyphenyl)cyclohexyl]carbonyl}-3-(methoxymethoxy)-N-(1H-pyrazolo[4,3-b]pyridin-5-yl)azetidine-2-carboxamide] | 2.47 µM | > 1 µM | 2.17 µM | > 10 µM | > 10 µM
6 | COc1ccc(C2(C(=O)N3C[C@H](F)C[C@@H]3C(=O)Nc3ccc4[nH]c(C)cc4n3)CCC(F)(F)CC2)cc1 [Example 97, (4R)-1-{[4,4-Difluoro-1-(4-methoxyphenyl)cyclohexyl]carbonyl}-4-fluoro-N-(2-methyl-1H-pyrrolo[3,2-b]pyridin-5-yl)-D-prolinamide] | 0.07 µM | 0.218 µM | 0.123 µM | 1.18 µM | 0.854 µM
7 | CC(C)(O)c1ccc(C2(C(=O)N3C[C@H](F)C[C@@H]3C(=O)Nc3ccc4[nH]ncc4n3)CCC(F)(F)CC2)cc1 [Example 98, (4R)-1-({4,4-Difluoro-1-[4-(2-hydroxypropan-2-yl)phenyl]cyclohexyl}carbonyl)-4-fluoro-N-1H-pyrazolo[4,3-b]pyridin-5-yl-D-prolinamide] | 0.076 µM | 0.062 µM | 0.202 µM | 0.331 µM | 0.267 µM
8 | CS(=O)(=O)c1ccc(C2(C(=O)N3C[C@H](F)C[C@@H]3C(=O)Nc3ccc4[nH]ncc4c3C#N)CCC(F)(F)CC2)cc1 [Example 99, (4R)—N-(4-Cyano-1H-indazol-5-yl)-1-({4,4-difluoro-1-[4-(methylsulfonyl)phenyl]cyclohexyl}carbonyl)-4-fluoro-D-prolinamide] | 0.076 µM | 0.062 µM | 0.205 µM | 0.399 µM | 0.3 µM
9 | COc1ccc(C2(C(=O)N3C[C@H](F)C[C@@H]3C(=O)Nc3ccc4[nH]ncc4c3F)CCC(F)(F)CC2)cc1 [Example 100] | 0.067 µM | 0.243 µM | 0.095 µM | 1.37 µM | 0.66 µM
10 | CC(=O)Nc1ccc(C2(C(=O)N3C[C@H](F)C[C@@H]3C(=O)Nc3ccc4[nH]ncc4n3)CCC(F)(F)CC2)cc1 [Example 101, (4R)-1-({1-[4-(acetylamino)phenyl]-4,4-difluorocyclohexyl}carbonyl)-4-fluoro-N-1H-pyrazolo[4,3-b]pyridin-5-yl-D-prolinamide] | 0.12 µM | 0.24 µM | 0.235 µM | 1.05 µM | 0.707 µM
11 | CS(=O)(=O)Nc1ccc(C2(C(=O)N3C[C@H](F)C[C@@H]3C(=O)Nc3ccc4[nH]ncc4n3)CCC(F)(F)CC2)cc1 [Example 102, (4R)-1-[(4,4-Difluoro-1-{4-[(methylsulfonyl)amino]phenyl}cyclohexyl)carbonyl]-4-fluoro-N-1H-pyrazolo[4,3-b]pyridin-5-yl-D-prolinamide] | 0.04 µM | 0.126 µM | 0.084 µM | 0.439 µM | 0.323 µM
12 | CNCc1cc2nc(NC(=O)[C@H]3C[C@@H](F)CN3C(=O)C3(c4ccc(OC(F)F)cc4)CCC(F)(F)CC3)ccc2[nH]1 [Example 103, (4R)-1-({1-[4-(Difluoromethoxy)phenyl]-4,4-difluorocyclohexyl}carbonyl)-4-fluoro-N-{2-[(methylamino)methyl]-1H-pyrrolo[3,2-b]pyridin-5-yl}-D-prolinamide] | 0.041 µM | 0.034 µM | 0.077 µM | 0.304 µM | 0.184 µM

Further compounds by falling IC50 (EP300), results first:

Row | IC50 (EP300) | IC50 (H3K27Ac) | IC50 (CREBBP) | Structure (SMILES) | GI50 (TE-8 cells) | GI50 (LK2 cells)
13 | 0.037 µM | 0.053 µM | 0.08 µM | CCOc1ccc(C2(C(=O)N3C[C@H](F)C[C@@H]3C(=O)Nc3ccc4[nH]ncc4n3)CC(F)(F)C2)cc1F [Example 88] | 0.351 µM | 0.201 µM
14 | 0.036 µM | 0.02 µM | 0.051 µM | O=C(Nc1ccc2[nH]ncc2n1)[C@H]1[C@H](O)[C@@H](F)CN1C(=O)C1(c2ccc(OC(F)F)cc2)CCC(F)(F)CC1 [Example 95] | 0.246 µM | 0.179 µM
15 | 0.033 µM | 0.019 µM | 0.061 µM | CC(=O)c1ccc(C2(C(=O)N3C[C@H](F)C[C@@H]3C(=O)Nc3ccc4[nH]ncc4n3)CCCCC2)cc1 [Example 83, (4R)-1-{[1-(4-Acetylphenyl)cyclohexyl]carbonyl}-4-fluoro-N-1H-pyrazolo[4,3-b]pyridin-5-yl-D-prolinamide] | 0.151 µM | 0.203 µM
16 | 0.031 µM | 0.029 µM | 0.053 µM | O=C(Nc1ccc2[nH]ncc2n1)[C@H]1C[C@@H](F)CN1C(=O)C1(c2ccc(OCF)c(F)c2)CCC(F)(F)CC1 [Example 85, (4R)-1-({4,4-Difluoro-1-[3-fluoro-4-(fluoromethoxy)phenyl]cyclohexyl}carbonyl)-4-fluoro-N-1H-pyrazolo[4,3-b]pyridin-5-yl-D-prolinamide] | 0.412 µM | 0.206 µM
17 | 0.031 µM | 0.089 µM | 0.075 µM | [2H]C([2H])([2H])Oc1ccc(C2(C(=O)N3C[C@H](F)C[C@@H]3C(=O)Nc3ccc4[nH]ncc4n3)CCC(F)(F)CC2)cc1F [Example 91, (4R)-1-[(4,4-Difluoro-1-{3-fluoro-4-[(^2H3)methyloxy]phenyl}cyclohexyl)carbonyl]-4-fluoro-N-1H-pyrazolo[4,3-b]pyridin-5-yl-D-prolinamide] | 0.364 µM | 0.217 µM
18 | 0.023 µM | 0.014 µM | 0.04 µM | O=C(Nc1ccc2[nH]ncc2n1)[C@H]1C[C@@H](F)CN1C(=O)C1(c2ccc(OCF)c(F)c2)CC(F)(F)C1 [Example 86] | 0.101 µM | 0.0868 µM
19 | 0.022 µM | 0.051 µM | 0.053 µM | [2H]C([2H])([2H])Oc1ccc(C2(C(=O)N3C[C@H](F)C[C@@H]3C(=O)Nc3ccc4[nH]ncc4n3)CCC(F)(F)CC2)cc1 [Example 92, (4R)-1-[(4,4-Difluoro-1-{4-[(^2H3)methyloxy]phenyl}cyclohexyl)carbonyl]-4-fluoro-N-1H-pyrazolo[4,3-b]pyridin-5-yl-D-prolinamide] | 0.308 µM | 0.195 µM
20 | 0.004 µM | 0.009 µM | 0.007 µM | O=C(Nc1ccc2[nH]ncc2n1)[C@H]1C[C@@H](F)CN1C(=O)C1(c2ccc(OC(F)F)cc2)CC(F)(F)C1 [Example 90] | 0.106 µM | 0.0734 µM
